{"source": "patent US9346761B2", "about": "“Arginine methyltransferase inhibitors and uses thereof” (Epizyme, Inc., priority 2013, dated 2016)", "key": {"Full-length human PRMT6": {"target": "T1, Full-length human PRMT6 (Homo sapiens, UniProt Q96LA8)", "T1 construct": "Flag-PRMT6-His was eluted with 200 ug/ml FLAG peptide in the same buffer; made in house; host or cells: HEK 293F cells (BacMam virus, pFastBacMam)", "T1 sequence (Q96LA8 with tags, fused parts or gaps)": "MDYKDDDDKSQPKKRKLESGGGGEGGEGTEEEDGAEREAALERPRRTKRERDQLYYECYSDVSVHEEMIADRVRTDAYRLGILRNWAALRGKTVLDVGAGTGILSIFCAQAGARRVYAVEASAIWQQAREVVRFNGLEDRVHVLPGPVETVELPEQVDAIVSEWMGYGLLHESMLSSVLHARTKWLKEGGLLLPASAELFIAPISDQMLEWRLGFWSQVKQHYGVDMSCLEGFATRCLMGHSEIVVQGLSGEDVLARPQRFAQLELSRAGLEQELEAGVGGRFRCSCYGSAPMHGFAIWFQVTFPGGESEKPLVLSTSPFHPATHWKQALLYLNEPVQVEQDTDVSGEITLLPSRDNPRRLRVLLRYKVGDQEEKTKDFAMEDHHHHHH", "experiment": "PRMT6 biochemical assay (3H-SAM Flashplate, peptide substrate)", "method_in_brief": "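Read-out is 3H-methylated histone H4 (36-50) peptide bound to streptavidin Flashplates after a cold-SAM stop. Baculovirus-expressed Flag-PRMT6-His met compound for 30 min at room temperature before SAM and peptide; Bicine pH 7.6 buffer. IC50 fitted to % inhibition normalized to SAH (min) and DMSO (max).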"}, "[1]": {"tested_on": "mono-methyl arginine in RKO cells", "experiment": "RKO methylation assay, In Cell Western for mono-methyl arginine and DNA content", "assay_type": "cell-based", "settings": "Homo sapiens; In Cell Western, RKO cells, 72 hours, percent activation of mono-methyl arginine signal; read-out: EC30"}}, "note": "pIC50: −log10 of the molar value.", "data": [{"smiles": "CC(C)Cc1ccc(-c2c[nH]nc2CN(C)CCN)cc1", "note": "[Compound 170]", "values": [{"measurement": "pIC50", "setting": "Full-length human PRMT6", "result": "> 7.00"}, {"measurement": "EC30", "setting": "[1]", "result": "< 3000", "unit": "nM"}]}]}
